Laboratory results as given in the supplement of paper PMC10307832.

Tests used:
Test in all cases: relative viability (nuclei count vs DMSO), 5 days (fraction); higher = more cells survive
[1] = compound: CC1=C(N=C(N=C1N)[C@H](CC(=O)N)NC[C@@H](C(=O)N)N)C(=O)N[C@@H]([C@H](C2=CN=CN2)OC3C(C(C(C(O3)CO)O)O)OC4C(C(C(C(O4)CO)O)OC(=O)N)O)C(=O)N[C@H](C)[C@H]([C@H](C)C(=O)N[C@@H]([C@@H](C)O)C(=O)NCCC5=NC(=CS5)C6=NC(=CS6)C(=O)NCCC[S+](C)C)O [Bleomycin] + Nc1ncn([C@H]2C[C@H](O)[C@@H](CO)O2)c(=O)n1 [Decitabine] (partner 2 µM); conditions: main component drawn
Outline: (§1)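 Five library-drug doses in √10 steps were combined with a fixed anchor-drug dose, or a single drug was given alone, by pin tool to lung cancer cell lines in 1536-well plates the day after seeding. Nuclei were stained and counted after 5 days. Relative viability is the nuclei count in treated wells over that in vehicle wells, taken as the median of duplicate plates.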

[2] = compound: CC1=C(N=C(N=C1N)[C@H](CC(=O)N)NC[C@@H](C(=O)N)N)C(=O)N[C@@H]([C@H](C2=CN=CN2)OC3C(C(C(C(O3)CO)O)O)OC4C(C(C(C(O4)CO)O)OC(=O)N)O)C(=O)N[C@H](C)[C@H]([C@H](C)C(=O)N[C@@H]([C@@H](C)O)C(=O)NCCC5=NC(=CS5)C6=NC(=CS6)C(=O)NCCC[S+](C)C)O [Bleomycin] + N=C(N)NC(=N)NCCc1ccccc1 [Phenformin] (partner 250 µM); conditions: main component drawn
Outline: as §1

[3] = compound: CC1=C(N=C(N=C1N)[C@H](CC(=O)N)NC[C@@H](C(=O)N)N)C(=O)N[C@@H]([C@H](C2=CN=CN2)OC3C(C(C(C(O3)CO)O)O)OC4C(C(C(C(O4)CO)O)OC(=O)N)O)C(=O)N[C@H](C)[C@H]([C@H](C)C(=O)N[C@@H]([C@@H](C)O)C(=O)NCCC5=NC(=CS5)C6=NC(=CS6)C(=O)NCCC[S+](C)C)O [Bleomycin] + CC(=O)Nc1cccc(-n2c(=O)n(C3CC3)c(=O)c3c(Nc4ccc(I)cc4F)n(C)c(=O)c(C)c32)c1 [Trametinib] (partner 0.02 µM); conditions: main component drawn
Outline: as §1

[4] = compound: COc1cc([C@@H]2c3cc4c(cc3[C@@H](O[C@@H]3O[C@@H]5CO[C@@H](C)O[C@H]5[C@H](O)[C@H]3O)[C@H]3COC(=O)[C@H]23)OCO4)cc(OC)c1O [Etoposide] + CC1(C)CCC(c2ccc(Cl)cc2)=C(CN2CCN(c3ccc(C(=O)NS(=O)(=O)c4ccc(N[C@H](CCN5CCOCC5)CSc5ccccc5)c(S(=O)(=O)C(F)(F)F)c4)cc3)CC2)C1 [Navitoclax] (partner 0.5 µM)
Outline: as §1

Cell Line	relative viability ([1]; first compound 0.01 µM)	relative viability ([1]; first compound 0.03162 µM)	relative viability ([1]; first compound 0.1 µM)	relative viability ([1]; first compound 0.3162 µM)	relative viability ([1]; first compound 1 µM)	relative viability ([2]; first compound 0.01 µM)	relative viability ([2]; first compound 0.03162 µM)	relative viability ([2]; first compound 0.1 µM)	relative viability ([2]; first compound 0.3162 µM)	relative viability ([2]; first compound 1 µM)	relative viability ([3]; first compound 0.01 µM)	relative viability ([3]; first compound 0.03162 µM)	relative viability ([3]; first compound 0.1 µM)	relative viability ([3]; first compound 0.3162 µM)	relative viability ([3]; first compound 1 µM)	relative viability ([4]; first compound 0.01 µM)	relative viability ([4]; first compound 0.03162 µM)	relative viability ([4]; first compound 0.1 µM)	relative viability ([4]; first compound 0.3162 µM)	relative viability ([4]; first compound 1 µM)
NCI-H522	0.736	0.777	0.608	0.405	0.399	0.561	0.585	0.493	0.363	0.416	0.776	0.705	0.763	0.433	0.379	–	–	–	–	–
HCC-15	0.591	0.639	0.543	0.336	0.276	0.418	0.457	0.387	0.16	0.129	0.348	0.338	0.365	0.209	0.186	0.652	0.647	0.626	0.31	0.125
A-427	0.429	0.495	0.406	0.29	0.266	0.253	0.349	0.269	0.175	0.113	0.607	0.558	0.417	0.261	0.212	0.963	0.937	0.525	0.53	0.256
NCI-H23	0.307	0.265	0.235	0.184	0.177	0.518	0.586	0.357	0.207	0.17	0.226	0.321	0.189	0.161	0.144	0.733	0.816	0.502	0.421	0.254
NCI-H1734	0.453	0.477	0.414	0.272	0.2	0.327	0.28	0.28	0.177	0.131	0.518	0.537	0.397	0.263	0.163	0.761	0.9	0.665	0.598	0.266
NCI-H2087	0.261	0.27	0.229	0.144	0.183	–	0.465	0.379	0.184	0.162	0.204	0.146	0.176	0.177	0.135	–	1.05	0.941	0.727	0.264
PC-3 [JPC-3]	0.806	0.69	0.704	0.621	0.547	0.476	0.511	0.475	0.364	0.336	0.68	0.722	0.617	0.449	0.433	0.784	0.825	0.6	0.787	0.703
NCI-H1915	0.259	0.237	0.238	0.193	0.141	0.301	0.301	0.254	0.15	0.14	0.282	0.295	0.215	0.165	0.128	0.826	0.814	0.815	0.725	0.621
NCI-H1666	0.699	0.56	0.505	0.442	0.388	0.528	0.516	0.494	0.344	0.302	0.717	0.783	0.76	0.533	0.581	0.788	0.875	0.549	0.353	0.263
HCC-366	0.242	0.26	0.132	0.069	0.0541	0.455	0.618	0.423	0.159	0.0675	0.219	0.144	0.147	0.0475	0.0448	0.923	1.05	0.864	0.306	0.0332
SK-MES-1	0.321	0.356	0.305	0.177	0.164	0.58	0.617	0.546	0.217	0.174	0.501	0.532	0.527	0.28	0.219	1.14	1.23	0.913	0.532	0.211
NCI-H727	0.938	0.686	0.893	0.459	0.776	0.65	0.621	0.469	–	0.502	0.376	0.321	0.392	0.404	0.406	0.439	0.553	0.369	0.488	0.319
RERF-LC-KJ	0.418	0.478	0.336	0.213	0.145	0.287	0.271	0.269	0.209	0.183	0.678	0.563	0.492	0.272	0.229	0.829	0.94	0.957	0.829	0.488
NCI-H1623	–	–	–	–	–	0.548	0.631	0.513	0.442	0.333	–	–	–	–	–	–	–	–	–	–
Calu-6	–	–	–	–	–	–	–	–	–	–	–	–	–	–	–	0.883	0.722	0.828	0.418	0.213
